Assay results taken from publication PMC9612231, “Antileishmanial Anthracene Endoperoxides: Efficacy In Vitro, Mechanisms and Structure-Activity Relationships” (Molecules, 2022).

Key:
[1] = Formation of the xylenol orange/Fe3+ complex by EP; conditions: for Log10 (Formation Rate) / XO/Fe^3+ Formation Rate: AcEP and 250 µM FeSO4 in methanol/H2O (9:1); for XO/Fe^3+ Formation Rate: mean ± SD of 3 experiments
Description: In subsequent experiments, we explored the activation of EP and possible cellular consequences of these compounds in Leishmania. In a chemical system, we tested how fast EP react with iron (II) and, therefore, lead to the activation of these compounds. Resulting iron (III) was detected as complex with xylenol orange (XO, Figure 3). The reaction rate of the EP stretched across two magnitudes of orders (Table 3). On the first view, there is no direct link between the activation rates and the efficiency of the compounds against Leishmania.
XO (125 µM) and butylated hydroxytoluene (4 mM) were dissolved in MeOH/H2O (9:1). FeSO4 (25 mM) in 2.5 M H2SO4 was prepared immediately before use (final concentration of 250 µM FeSO4 in the color reagent). An aliquot of 100 µL EP solution (final concentration of 100 µM) was transferred into a disposable cuvette (BRAND, Wertheim, Germany), and 1 mL of the color reagent was added. The EP that reacted slower were incubated for 0, 30, 60, and 90 min at 25 °C. The EP that reacted faster were measured every 5 s over 5 min. At these time points, the OD difference of the sample at 560 nm and 650 nm was determined using a MS1501 UV–VIS diode array spectrophotometer (Shimadzu, Kyoto, Japan). As reference, a mixture of MeOH/H2O (9:1) was used. The slope of the reaction rate was calculated using an extinction coefficient of 1.5 × 10^4 M^−1 cm^−1.

[2] = test system: Leishmania tarentolae promastigotes (LtP); test: LtP viability combination assay with NAC or PIH; type: cell-based; conditions: 2 × 10^6 LtP/mL; for Change of IC50 value in LtP by addition of PIH: 50 µM PIH; for Change of IC50 value in LtP by addition of NAC: 2 mM NAC
Description: Based on the findings from chemical test systems, we studied the actual activation of these EP compounds in LtP. For this purpose, we used the established viability assays for Leishmania and studied how IC50 values were changed by the presence of the typical radical scavenger N-acetyl cysteine (NAC) or the iron chelator for low molecular iron pyridoxal isonicotinoyl hydrazine (PIH). We expressed the changes of the IC50 values in the presence of these additional compounds in percent, referring to the original IC50 values in LtP set to 100% (Figure 8). […] Likewise, in the presence of the iron chelator PIH, the IC50 values of most EP in LtP shifted to higher values.
Assay medium of YEM (20.7 g/L yeast extract powder, 1.2 g/L K2HPO4, 0.2 g/L KH2PO4, 2.9 g/L glucose, pH 7.4) and PBS (1:1, v/v), 25,000 U/L penicillin, 25 mg/L streptomycin, and 7.7 µM hemin was prepared. Aliquots of 200 µL of this medium and 2 × 10^6 LtP/mL (where required) were distributed in non-treated cell culture 96-well plates. Compounds (dissolved in DMSO) were added with starting concentrations of 25 µM (Pen) or 200 µM (AcEP/Ac), and then, serial dilutions were carried out resulting in a set of concentrations (25, 5, 1, 0.2, 0.04, and 0.008 µM) or (200, 40, 8, 1.6, 0.32, and 0.064 µM). For each compound concentration, at least triplicates on each plate were performed. After incubation of the plates at 27 °C for 48 h, 50 µL of resazurin solution (final concentration in wells 20 µM) was added to each well and after 4 h of incubation, the fluorescence was measured at 560 nm excitation and 590 nm emission using a plate reader (Perkin Elmer EnSpire, Rodgau, Germany) (adapted from). Combination assays for viability in the presence of PIH and NAC were performed the same way. However, one half of the plate was filled with YEM/PBS with 2 × 10^6 LtP/mL, and the other half of the plate was filled with YEM/PBS with 2 × 10^6 LtP/mL supplemented with non-toxic concentrations of PIH (50 µM) or NAC (2 mM), so that for each plate, two compounds were tested with and without the presence of PIH or NAC. All tests were repeated at least on four different weeks of cultivation.

LtP = test: Superoxide radical formation in LtP by the EPR/CMH method; type: cell-based, Leishmania tarentolae; conditions: 20 min at 25 °C; for Superoxide formation in LtP (CMH oxidation), in words: 100 µM compound
Description: Since mitochondrial inhibition can be triggered by secondary damage in the respective cells, for example, by superoxide radicals, we studied the formation of superoxide radicals in LtP by the EPR/hydroxyl-3-methoxycarbonyl-2,2,5,5-tetramethylpyrrolidine hydrochloride (CMH) method (Figure 10). […] In the presence of antimycin A (AA, an inhibitor of mitochondrial complex III), the superoxide radical formation in LtP is increased by more than 150% (Figure 11).
An aliquot of the LtP cell culture equivalent to 5 × 10^8 LtP was transferred into a 1.5 mL Eppendorf tube and was centrifuged (Hettich Universal 16, 20 °C, 2000× g, 10 min). After removal of the supernatant, the cell pellet was re-suspended in 1 mL PBS and centrifuged again and the supernatant discarded. The cell pellet was re-suspended in 1 mL of PBS with 15 mM glucose (PBS-gluc), giving a final cell density of 5 × 10^8 LtP/mL. AcEP/Ac compounds were added (100 µM final concentration) to aliquots of 50 µL of this cell suspension in 1.5 mL Eppendorf tubes and incubated for 20 min at 25 °C. Then, DFO (100 μM final concentration), DTPA (25 μM final concentration), and detection agent CMH (400 µM final concentration) were added to the aliquots before measurement. Samples containing only buffer (PBS-gluc) or only LtP (in PBS-gluc) were used as negative controls, while samples containing 20 μM AA were used as positive control. An aliquot of 17 µL suspension was aspirated into a PTFE tube (ø 0.7 mm). The tube was folded into a quartz tube (ø 4 mm outer diameter) and then transferred to the MD5 resonator of the EPR spectrometer. The measurement was started using following parameters: microwave frequency 9.682 GHz; microwave power 20 mW, modulation frequency 100 kHz; modulation amplitude 1 G; time constant 0.82 s; center field 3448 G; sweep width 100 G; scan time 84 s; attenuation 70 dB; separate scans 5. Based on a calibration curve with carboxy proxyl (CP^●) changes of the peak-to-peak intensity of CM^● spectra were converted to CMH oxidation rates (superoxide radical generation).

SMILES: C[n+]1ccc(C23OOC(c4cc[n+](C)cc4)(c4ccccc42)c2ccccc23)cc1 [Compound 1062MeAcEP]
- Log10 (Formation Rate) [1]: 2.78
- XO/Fe^3+ Formation Rate [1]: 609 ± 27 nmol/min
- Change of IC50 value in LtP by addition of PIH [2]: increase of IC50 values
- Change of IC50 value in LtP by addition of NAC [2]: higher IC50 values in the presence of the thiol NAC

SMILES: c1ccc(C23OOC(c4ccccc4)(c4ccccc42)c2ccccc23)cc1 [DPAcEP]
- Log10 (Formation Rate) [1]: 2.83
- XO/Fe^3+ Formation Rate [1]: 677 ± 86 nmol/min
- Change of IC50 value in LtP by addition of PIH [2]: increase of IC50 values
- Change of IC50 value in LtP by addition of NAC [2]: did not respond, but rather displayed even lower IC50 values

SMILES: CC(C)(C)c1ccc2c(c1)C1(c3cccnc3)OOC2(c2cccnc2)c2ccccc21 (stereo not drawn) [mPyBuAcEP]
- Log10 (Formation Rate) [1]: 2.86
- XO/Fe^3+ Formation Rate [1]: 731 ± 111 nmol/min
- Activation by iron (II), in words ([1]; XO assay): rather slow activation by iron (II)
- Change of IC50 value in LtP by addition of PIH [2]: increase of IC50 values
- Change of IC50 value in LtP by addition of NAC [2]: higher IC50 values in the presence of the thiol NAC
- Increase of superoxide formation in LtP (LtP; 100 µM Ac/AcEP): more than 70%
- Superoxide formation in LtP (CMH oxidation), in words (LtP): most effective in boosting the superoxide production

SMILES: CC(C)(C)c1ccc2c(-c3cccnc3)c3ccccc3c(-c3cccnc3)c2c1 [mPyBuAc]
- Superoxide formation in LtP (CMH oxidation), in words (LtP): most effective in boosting the superoxide production

SMILES: COc1ccccc1C12OOC(c3ccccc3OC)(c3ccccc31)c1ccccc12 [oOMeAcEP]
- Log10 (Formation Rate) [1]: 2.73
- XO/Fe^3+ Formation Rate [1]: 545 ± 17 nmol/min
- Change of IC50 value in LtP by addition of PIH [2]: increase of IC50 values
- Change of IC50 value in LtP by addition of NAC [2]: did not respond, but rather displayed even lower IC50 values

SMILES: c1ccc(C23OOC(c4ccccn4)(c4ccccc42)c2ccccc23)nc1 [oPyAcEP]
- Log10 (Formation Rate) [1]: 4.91
- XO/Fe^3+ Formation Rate [1]: 81,700 ± 11,921 nmol/min
- Change of IC50 value in LtP by addition of PIH [2]: no increase was observed
- Change of IC50 value in LtP by addition of NAC [2]: higher IC50 values in the presence of the thiol NAC
